Laboratory results taken from patent US20170128448A1, “COMBINATION THERAPY FOR CANCER” (Celgene Corporation, priority 2014, published 2017).

Legend:
[1] = First-in-human study of Compound A, Part A dose escalation; assay type: in vivo; conditions: for dose limiting toxicities (DLT) observed: in vivo
Protocol: (§1) The first-in-human study of Compound A is being conducted in a broad tumor population including diverse solid tumors, lymphoma and MM. Part A of the study used a Compound A starting dose of 0.5 mg QD on a continuous dosing schedule. Using allometric scaling, this dose represented a dose ˜20-fold below the highest non-severely toxic dose (HNSTD) in primates based on preclinical toxicology studies. Part A dose escalation proceeded in 0.5 mg increments (0.5, 1.0, 1.5, 2.0, 2.5, 3.0, 3.5 mg) and established the nontolerated dose (NTD) at 3.5 mg QD and the MTD at 3.0 mg QD. […] In Part B, parallel expansion cohorts (14 to 20 subjects each) in 4 tumor indications (MM, NHL, HCC and gliomas) were subsequently enrolled at a dose of 3.0 mg QD. Given that subjects with CLL may be more sensitive to the side effects of immunomodulatory agents (IMiDs®) and other cereblon-binding agents, and the clinical safety, PK and pharmacodynamics data observed with Compound A to date, a lower Compound A starting dose of 0.25 mg QD was used in a CLL population.

IL-10 = experiment: Cytokine stimulation in LPS-stimulated hPBMC and human whole blood: IL-10; assay type: cell-based
Source text: (§2) TNF-α is an inflammatory cytokine produced by macrophages and monocytes during acute inflammation. TNF-α is responsible for a diverse range of signaling events within cells. TNF-α may play a pathological role in cancer. Without being limited by theory, one of the biological effects exerted by Compound A is the reduction of synthesis of TNF-α. Compound A enhances the degradation of TNF-α mRNA.

[2] = tested on: follicular lymphoma cell lines (RL and DoHH2); experiment: 8-day cytotoxicity assay (cell titer glo), follicular lymphoma lines; assay type: cell-based; conditions: Compound A 200 nM for 8 days + obinutuzumab (GA101) 0 to 10,000 ng/mL last 24 hours; FL lines
Protocol: (§3) In vitro combination efficacy studies were performed with Compound A and obinutuzumab (GA101). Two follicular (RL and DoHH2) and two diffuse large B cell lymphoma (DLBCL) (Oci-Ly10, WSU-DLCL2) cell lines were treated with either single agent Compound A (200 nM), single agent obinutuzumab (0 to 10,000 ng/mL) or in combination in 8-day cytotoxicity assays (cell titer glo). In both the single agent and combination studies, the cells were treated with Compound A for 8 days and with obinutuzumab treatment on the last 24 hours in the combination studies.

[3] = in vivo
Protocol: as §1

human NK cell = experiment: NK cell IFN-γ production in response to immobilized Ig-G and IL-2 stimulation; assay type: cell-based; conditions: read-out: EC50, enhancement of NK cell IFN-γ production
Source text: Without being bound by a particular theory, Compound A is believed to enhance the human NK cell killing function, antibody-dependent cellular cytotoxicity (ADCC), in rituximab coated lymphoma cell lines.

[4] = tested on: panel of lymphoma and MM cell lines; experiment: Immunomodulatory and anti-proliferative activity against a panel of cell lines; assay type: cell-based
Protocol: (§4) A second consideration for the starting dose of Compound A is based on the relative in vitro potency between Compound A and lenalidomide and the relative human safety and tolerability of lenalidomide in CLL. […] Clinical exploration of lenalidomide in CLL has established 5 mg to be a tolerable starting dose.

T cells = experiment: T cell co-stimulation; assay type: cell-based; conditions: under appropriate conditions
IL-1β = experiment: Cytokine inhibition in LPS-stimulated hPBMC and human whole blood: IL-1β; assay type: cell-based
Source text: as §2

human CLL cells = experiment: Primary cultures of human CLL cells; assay type: cell-based; conditions: in 70% of samples tested
Protocol: as §4

DoHH2 lymphoma xenograft = DoHH2 lymphoma xenograft model; assay type: in vivo
Protocol: (§5) In combination with rituximab, Compound A at 3 and 30 mg/kg induced complete regressions in 60% and 90% of animals, respectively.

[5] = tested on: DLBCL cell lines (Oci-Ly10, WSU-DLCL2); experiment: 8-day cytotoxicity assay (cell titer glo), DLBCL lines; assay type: cell-based; conditions: Compound A 200 nM for 8 days + obinutuzumab (GA101) 0 to 10,000 ng/mL last 24 hours
Protocol: as §3

[6] = tested on: WSU-DLCL2 lymphoma xenograft; experiment: WSU-DLCL2 lymphoma xenograft model; assay type: in vivo; conditions: for complete regressions, % of animals: WSU-DLCL2
Protocol: as §5

TNF-α = experiment: Cytokine inhibition in LPS-stimulated hPBMC and human whole blood: TNF-α; assay type: cell-based
Source text: as §2

DLBCL cell lines = conditions: lenalidomide with ibrutinib (Yang, 2012); cited from earlier work
[7] = cited from earlier work
[8] = continuous dosing, solid tumors, lymphoma and MM

## Cc1nc2cccc(N)c2c(=O)n1C1CCC(=O)NC1=O (centres unmarked) [Compound A, 3-(5-amino-2-methyl-4-oxo-4H-quinazolin-3-yl)-piperidine-2,6-dione]
[1]; [8]
  MTD: 3.0 mg QD
  nontolerated dose (NTD): 3.5 mg QD
[1]; human
  dose limiting toxicities (DLT) observed: Grade 3 fever and fatigue and Grade 3 muscle weakness
[1]
  dose limiting toxicities (DLT) observed: No DLTs
IL-10
  effect on IL-10: stimulates
[2]
  combination effect on cytotoxicity: synergistic
[3]
  starting dose relative to highest non-severely toxic dose (HNSTD) in primates, fold below: ~20 fold
Human NK cell
  EC50: 1.5 nM
[4]
  potency relative to lenalidomide, immunomodulatory and anti-proliferative activity: ~10 fold
T cells
  T cell co-stimulation, cell proliferation: increased cell proliferation in a dose dependent manner
IL-1β
  inhibition of IL-1β: potently inhibits
Human CLL cells
  potency relative to lenalidomide: ~5 fold
DoHH2 lymphoma xenograft; Compound A single agent at 3 and 30 mg/kg
  tumor growth inhibition, single agent: modest dose-dependent tumor growth inhibition
DoHH2 lymphoma xenograft; in combination with rituximab
  tumor growth delay, combination with rituximab: significantly and dose-dependently delayed tumor growth
[5]
  combination effect on cytotoxicity: additive
[6]; Compound A 3 mg/kg in combination with rituximab
  complete regressions, % of animals: 60%
[6]; Compound A 30 mg/kg in combination with rituximab
  complete regressions, % of animals: 90%
[6]; WSU-DLCL2 study, Compound A single agent
  effect as single agent: minimal effects
[6]; WSU-DLCL2 xenograft, administered with rituximab
  tumor growth inhibition, administered with rituximab: dose-dependent tumor growth inhibition
TNF-α
  inhibition of TNF-α: markedly inhibits

## C=CC(=O)N1CCC[C@@H](n2nc(-c3ccc(Oc4ccccc4)cc3)c3c(N)ncnc32)C1 [ibrutinib]
DLBCL cell lines
  combination effect of lenalidomide and ibrutinib on killing of DLBCL cell lines: synergistically kill

## Nc1cccc2c1CN(C1CCC(=O)NC1=O)C2=O (centres unmarked) [lenalidomide]
DLBCL cell lines
  combination effect of lenalidomide and ibrutinib on killing of DLBCL cell lines: synergistically kill
[7]; 21 of 28 day cycles, during the 7 day drug holidays (Chen, 2011)
  effect of intermittent dosing schedule in CLL: rebound lymphocytosis
[7]; CLL patients
  tolerable starting dose in CLL: 5 mg

## GA101: humanized type II monoclonal antibody that binds to CD20 and triggers destruction of B-cells
[2]
  combination effect on cytotoxicity: synergistic
[5]
  combination effect on cytotoxicity: additive
